From the NIST ThermoML archive (doi:10.1007/s10765-017-2256-0)
“And” between values parts separate entries of the source, which are not always exact repeats. Equal values may be shown once.

Conditions: for mass density: 407.69 K, Fluid (supercritical or subcritical phases), Bellows volumetry

CC(C)C [2-methylpropane]
Conditions | mass density
3627.5 kPa | 203.1 kg/m3
3629.3 kPa | 205.78 kg/m3
3631.2 kPa | 208.58 kg/m3
3632.8 kPa | 211.59 kg/m3
3634 kPa | 214.88 kg/m3
3634.8 kPa | 218.47 kg/m3
3635.3 kPa | 222.42 kg/m3
3635.4 kPa | 223.5 kg/m3
3635.7 kPa | 225.57 kg/m3 and 226.64 kg/m3
3636.3 kPa | 228.77 kg/m3
3637 kPa | 230.86 kg/m3
3638.4 kPa | 235.26 kg/m3
3639.6 kPa | 239.96 kg/m3
3641.1 kPa | 244.93 kg/m3

Conditions | Critical temperature [K]
Liquid, Visual observation in a stirred cell | 407.69
